{"source": "patent US20090274675A1", "about": "“Migraine tonic” (priority 2008, published 2009)", "key": {"[1]": {"test_system": "women suffering from severe migraine", "test": "Intravenous magnesium in intra-partum and post-partum women with severe migraine", "format": "in vivo, human", "details": "intravenous injection", "method": "Use of magnesium is useful to control this neuronal excitability, which is one factor that perpetuates migraine. […] In this invention the unit dosage of Magnesium Citrate to be used is 250 to 500 mg. per total formulation dosage."}, "migraine headache": {"test_system": "migraine headache", "details": "several clinical trials in the U.S and Europe; cited from earlier work"}}}
{"molecule": "[Mg+2]", "note": "[magnesium, Magnesium]", "values": [{"measurement": "effect on severe migraine", "setting": "[1]", "result": "dramatic effect"}]}
{"molecule": "Cc1cc2nc3c(=O)[nH]c(=O)nc-3n(C[C@H](O)[C@H](O)[C@H](O)CO)c2cc1C", "note": "[riboflavin, Riboflavin]", "values": [{"measurement": "improvement in migraine headache", "setting": "migraine headache", "result": "statistically significant"}]}
